# Laboratory results from patent publication US12110288B2, “MASP-2 inhibitors and methods of use” (Omeros Corporation, priority 2019, dated 2024).
# Counter-ions that a name gives are not always drawn.
# Target: T1, MASP-2 (CCP1-CCP2-SP) (Homo sapiens, UniProt O00187)
# T1 construct: 15 μL of Enzyme MASP-2 (CCP1-CCP2-SP) in Assay Buffer
# Test: Enzymatic Assay for MASP-2
# Type: biochemical
# Conditions: fluorogenic substrate based on C2 cleavage site, room temperature, 20 mM HEPES pH 7.4
# Outline: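 Fluorogenic substrate modelled on the C2 cleavage site, run at room temperature in 20 mM HEPES pH 7.4, 140 mM NaCl, 0.1% Tween 20; compounds were added from DMSO serial dilutions before enzyme and substrate. Reactions ran 20 min and were stopped with 0.1 M acetic acid before fluorescence was read. % activity was normalised to DMSO-only and no-enzyme controls; IC50 was taken as Ki, with tight- or slow-binding inhibitors handled separately.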
# T1 sequence (O00187 445-686 limits assumed): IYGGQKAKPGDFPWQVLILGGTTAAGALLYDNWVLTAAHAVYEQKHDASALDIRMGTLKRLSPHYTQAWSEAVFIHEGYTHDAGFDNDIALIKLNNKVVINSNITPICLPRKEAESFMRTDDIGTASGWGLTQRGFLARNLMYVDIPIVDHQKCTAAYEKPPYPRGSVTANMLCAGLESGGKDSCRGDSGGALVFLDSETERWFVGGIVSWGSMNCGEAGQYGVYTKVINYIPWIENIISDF
# T1 sequence (O00187 298-444 partner limits assumed): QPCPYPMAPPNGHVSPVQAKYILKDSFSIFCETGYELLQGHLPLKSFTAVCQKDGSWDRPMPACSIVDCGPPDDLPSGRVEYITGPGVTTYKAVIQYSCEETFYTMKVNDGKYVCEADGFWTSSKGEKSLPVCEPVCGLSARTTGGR
row,Compound,Ki [µM]
1,"O=C(Cn1c(-c2ccccc2)cnc(NCc2ccccc2)c1=O)NCc1cc2cnccc2[nH]1 [Compound 58, N-((1H-Pyrrolo[3,2-c]Pyridin-2-yl)Methyl)-2-(3-(Benzylamino)-2-Oxo-6-Phenylpyrazin-1(2H)-yl)Acetamide Trifluoroacetate]",< 0.5
2,"COc1cccc(CNc2ncc(-c3ccccc3)n(CC(=O)NCc3cc4cnccc4[nH]3)c2=O)c1 [Compound 153, N-((1H-Pyrrolo[3,2-c]pyridin-2-yl)methyl)-2-(3-((3-methoxybenzyl)amino)-2-oxo-6-phenylpyrazin-1(2H)-yl)acetamide]",< 0.5
3,"O=C(Cn1c(-c2ccccc2)cnc(NCc2ccc(F)cc2)c1=O)NCc1cc2cnccc2[nH]1 [Compound 147, N-((1H-Pyrrolo[3,2-c]Pyridin-2-yl)Methyl)-2-(3-((4-Fluorobenzyl)Amino)-2-Oxo-6-Phenylpyrazin-1(2H)-yl)Acetamide]",< 0.5
4,"Cc1ccccc1CCNc1ncc(-c2ccccc2)n(CC(=O)NCc2cc3cnccc3[nH]2)c1=O [Compound 135, N-((1H-Pyrrolo[3,2-c]pyridin-2-yl)methyl)-2-(3-((2-methylphenethyl)amino)-2-oxo-6-phenylpyrazin-1(2H)-yl)acetamide]",< 0.5
5,CC(C)Nc1cnc(N(CCc2ccccc2)CCc2ccccc2)c(=O)n1CC(=O)NCc1cc2cnccc2[nH]1 [Compound 159],> 10
6,"O=C(Cn1c(-c2ccccc2)cnc(NC2(c3ccc(F)c(F)c3)CC2)c1=O)NCc1cc2cnccc2[nH]1 [Compound 74, N-((1H-Pyrrolo[3,2-c]pyridin-2-yl)methyl)-2-(3-((1-(3,4-difluorophenyl)cyclopropyl)amino)-2-oxo-6-phenylpyrazin-1(2H)-yl)acetamide trifluoroacetate]",< 0.5
7,"O=C(Cn1c(-c2ccccc2)cnc(N2CCC3(CCNCC3)C2)c1=O)NCc1cc2cnccc2[nH]1 [Compound 54, N-((1H-Pyrrolo[3,2-c]Pyridin-2-yl)Methyl)-2-(2-Oxo-6-Phenyl-3-(2,8-Diazaspiro[4.5]Decan-2-yl)Pyrazin-1(2H)-yl)Acetamide Di-Trifluoroacetate]",0.5 to 2.5
8,"O=C(Cn1c(-c2ccccc2)cnc(NCCc2ccccc2)c1=O)NCc1cc2c(s1)CNCC2 [Compound 83, 2-(2-Oxo-3-(Phenethylamino)-6-Phenylpyrazin-1(2H)-yl)-N-((4,5,6,7-Tetrahydrothieno[2,3-c]Pyridin-2-yl)Methyl)Acetamide]",< 0.5
9,"Nc1nc2cc(CNC(=O)Cn3c(-c4ccccc4)cnc(NCCc4ccccc4)c3=O)ccc2[nH]1 [Compound 9, N-((2-Amino-1H-Benzo[d]Imidazol-5-yl)Methyl)-2-(2-Oxo-3-(Phenethylamino)-6-Phenylpyrazin-1(2H)-yl)Acetamide]",< 0.5
10,"CNc1ncc(-c2ccccc2)n(CC(=O)NCc2ccc(N)nc2C)c1=O [Compound 45, N-((6-Amino-2-methylpyridin-3-yl)methyl)-2-(3-(methylamino)-2-oxo-6-phenylpyrazin-1(2H)-yl)acetamide]",< 0.5
11,"Cc1nc(N)ccc1CNC(=O)Cn1c(=O)c(NS(=O)(=O)Cc2ccccc2)cn(C)c1=O [Compound 36, N-((6-Amino-2-Methylpyridin-3-yl)Methyl)-2-(3-Methyl-2,6-Dioxo-5-((Phenylmethyl)Sulfonamido)-3,6-Dihydropyrimidin-1(2H)-yl)Acetamide, Trifluoroacetate]",> 10
12,"Cc1nc(N)ccc1CNC(=O)Cn1c(-c2ccc(Cl)cc2)cnc(NCCc2ccccc2)c1=O [Compound 17, N-((6-Amino-2-Methylpyridin-3-yl)Methyl)-2-(6-(4-Chlorophenyl)-2-Oxo-3-(Phenethylamino)Pyrazin-1(2H)-yl) Acetamide, Trifluoroacetate]",< 0.5
13,"O=C(Cn1c(-c2ccccc2)cnc(N2CCC(c3ccccc3)CC2)c1=O)NCc1cc2cnccc2[nH]1 [Compound 140, N-((1H-Pyrrolo[3,2-c]pyridin-2-yl)methyl)-2-(2-oxo-6-phenyl-3-(4-phenylpiperidin-l-yl)pyrazin-1(2H)-yl)acetamide]",< 0.5
14,"Cc1nn(C)cc1-c1cnc(NCCc2ccccc2)c(=O)n1CC(=O)NCc1cc2cnccc2[nH]1 [Compound 104, N-((1H-Pyrrolo[3,2-c]pyridin-2-yl)methyl)-2-(6-(1,3-dimethyl-1H-pyrazol-4-yl)-2-oxo-3-(phenethylamino)pyrazin-1(2H)-yl)acetamide]",< 0.5
15,NC(=O)c1cccc(-c2cnc(NCCc3ccccc3)c(=O)n2CC(=O)NCc2ccc3nc(N)[nH]c3c2)c1 [Compound 15],< 0.5
16,"Cc1nc(N)ccc1CNC(=O)Cn1c(-c2ccc(C#N)cc2)cnc(NCCc2ccccc2)c1=O [Compound 27, N-((6-Amino-2-Methylpyridin-3-yl)Methyl)-2-(6-(4-Cyanophenyl)-2-Oxo-3-(Phenethyl Amino)Pyrazin-1(2H)-yl)Acetamide]",< 0.5
17,"O=C(Cn1c(-c2ccccc2)cnc(NCC2(c3ccc(F)cc3)COC2)c1=O)NCc1cc2cnccc2[nH]1 [Compound 55, N-((1H-Pyrrolo[3,2-c]pyridin-2-yl)methyl)-2-(3-(((3-(4-fluorophenyl)oxetan-3-yl)methyl)amino)-2-oxo-6-phenylpyrazin-1(2H)-yl)acetamide trifluoroacetate]",< 0.5
18,"COc1ccc(C2(CNc3ncc(-c4ccccc4)n(CC(=O)NCc4cc5cnccc5[nH]4)c3=O)CC2)cc1 [Compound 61, N-((1H-Pyrrolo[3,2-c]pyridin-2-yl)methyl)-2-(3-(((1-(4-methoxyphenyl)cyclopropyl)methyl)amino)-2-oxo-6-phenylpyrazin-1(2H)-yl)acetamide trifluoroacetate]",< 0.5
